# According to patent publication US4374146A, “Topical inflammatory pharmaceutical formulations” (Burroughs Wellcome Co., priority 1980, dated 1983):
# Read-outs that look alike come from different tables or passages of the source.
# Legend:
# acetic acid writhing [1] = assay: Acetic Acid Writhing Test (AAWT), mouse; type: in vivo; settings: po, read-out: AAWT ED50
# Excerpt: (§1) A. Acetic Acid Writhing Test (AAWT)
# (§2) Using the procedure described by Koster et al. in Fed. Proc. 18, 412 (1959) and Vinegar et al. in Handbook of Experimental Pharmacology, 50-2, ch.
# [2] = Acute toxicity assay, mouse; settings: in vivo
# [3] = tested on: carrageenin pleurisy (3 hr exudate volume, mobilized neutrophils); assay: Carrageenin Pleurisy Assay (CPA); type: in vivo, rat; settings: for ED50: Rattus norvegicus, Neutrophil, po; for CPA Local activity (inactive at stated dose): inactive at 1.0 mg/rat
# Method: (§3) A. Carrageenin Pleurisy Assay (CPA)
# (§4) Following the procedure described by Vinegar et al. in European J. Rheumatology and Inflammation, 1, 204, (1978) the acute anti-inflammatory activity of the compound of formula (I) was compared with that of known anti-inflammatory drugs. Two assays were performed: in the first, the average 3 hr exudate volume for each drug-treated group was determined and the % inhibition relative to solvent-fed control animals calculated, the ED50 being the dose required to reduce the 3 hr exudate volume by 50%; in the second, the number of mobilized neutrophils was quantified and the % inhibition relative to solvent-fed control animals calculated, the ED50 being the dose required to reduce the number of neutrophils mobilized at 3 hrs by 50%.
# [4] = Acute toxicity assay, rat; settings: in vivo
# Method: Four non-fasted male rats of 160-250 gram body weight were used for each dose level. The compound was injected by the indicated route and the symptom onset time, the intensity of the effect and the duration during a 4 hour observation period are recorded. The LD50 estimated is based on a 7 day observation and is determined by the method of Miller and Tainter (Proc. Soc. Exp. Biol. Med. 57:261, 1944).
# methemoglobinemia [5] = assay: Methemoglobinemia (cyanosis), rat; settings: for Methemoglobinemia (Cyanosis): rat, @ 500 mg/kg p.o.
# [6] = tested on: trypsin hyperalgesia, rat hindlimb; assay: Trypsin Hyperalgesic Assay (THA), rat hindlimb; type: in vivo; settings: for ED50: po, read-out: THA ED50; for Duration of Analgesia, time in hours to reduce -1.5 × THA ED50 to 40% inhibition: rat
# Excerpt: B. Trypsin Hyperalgesic Assay (THA)
# [7] = tested on: mouse liver, mouse kidney; settings: in vivo, ip
# [8] = tested on: carrageenin pleurisy in Adrex; assay: AI activity in Adrex, carrageenin pleurisy p.o.; type: in vivo, rat; settings: CP p.o.; for AI Activity in Adrex, Vol.: exudate volume
# Method: as §3, §4
# methemoglobinemia [9] = assay: Methemoglobinemia (cyanosis), dog; settings: for Methemoglobinemia (Cyanosis): dog
# [10] = tested on: yeast-induced hyperthermia; assay: Yeast-Induced Hyperthermia Assay; type: in vivo, rat; settings: for ED50: po, rat
# Excerpt: The Yeast-Induced Hyperthermia Assay was used according to the procedure described by Khalili-Varasteh et al. in Arch. Int. Pharmacodyn.
# rat liver, rat kidney [11] = settings: in vivo, ip
# hepatic glutathione = assay: Hepatic glutathione depletion in mouse; type: in vivo; settings: for Hepatic Gluathione Depletion: @ 40% of LD50, i.p. in mouse, over a 5 hr period
# acetic acid writhing [12] = assay: Acetic Acid Writhing Test (AAWT), rat; type: in vivo; settings: po, read-out: AAWT ED50
# Excerpt: as §1, §2
# gastric damage [13] = assay: Gastric damage in the rat; type: in vivo
# hot plate analgesia = assay: Hot plate assay for strong analgesic activity; settings: in vivo
# peroxidase = assay: Peroxidase inhibition; type: biochemical
# prostaglandin synthetase = assay: Prostaglandin synthetase inhibition; type: biochemical
# platelet aggregation = assay: Platelet aggregation inhibition
# gastric damage [14] = assay: Gastric damage (general statement); settings: in vivo
# lipoxygenase = assay: Lipoxygenase inhibition; type: biochemical
# opiate receptors = assay: Opiate receptor binding in vitro
# [15] = tested on: mouse liver, mouse kidney; assay: Histopathology, mouse liver and kidney
# rat liver, rat kidney [16] = assay: Histopathology, rat liver and kidney; settings: for Histopathology, Rat Kidney / Histopathology, Rat Liver: @ 40% LD50, i.p.
# [17] = tested on: analgesic activity (naloxone); assay: Naloxone antagonism of analgesic activity; settings: in vivo
# [18] = dose reducing 3 hr exudate volume by 50%, read-out: CPA ED50, Vol.
smiles,measurement,setting,value
CC(=O)Nc1ccc(O)cc1 [Acetaminophen],ED50,"acetic acid writhing [1]; mouse, p.o.",301 ± 11.5 mg/kg
same,LD50 at 168 h,[2]; ip,880 mg/kg
same,LD50 at 168 h,[2]; po,1640 mg/kg
same,"Duration of AI Activity, time in hrs to reduce 2 × CP cell ED50 to 40% inhibition of Vol.: Cells",[3],3.8 h
same,ED50,[3]; [18],172 ± 22.4 mg/kg
same,"Duration of AI Activity, time in hrs to reduce 2 × CP cell ED50 to 40% inhibition of Vol.: Vol.",[3],2.2 h
same,CPA Local activity (inactive at stated dose),[3]; local,Inactive
same,LD50 at 168 h,[4]; ip,1640 mg/kg
same,Methemoglobinemia (Cyanosis),methemoglobinemia [5],No
same,ED50,"[6]; rat hindlimb, p.o.",95 ± 17.2 mg/kg
same,"Histopathology, Mouse Kidney",[7],+
same,"Histopathology, Mouse Liver",[7],+
same,"AI Activity in Adrex, Cells",[8],Weakly Active
same,"AI Activity in Adrex, Vol.",[8],Active
same,Methemoglobinemia (Cyanosis),methemoglobinemia [9]; @ 100 mg/kg p.o.,No
same,ED50,[10],72 ± 8.6 mg/kg
same,"Histopathology, Rat Kidney","rat liver, rat kidney [11]",+
same,"Histopathology, Rat Liver","rat liver, rat kidney [11]",+
same,Hepatic Gluathione Depletion,hepatic glutathione,+ (90% depletion over a 5 hr period)
CC(=O)Oc1ccccc1C(=O)O [Aspirin],ED50,acetic acid writhing [1]; Mus musculus,301 ± 21.1 mg/kg
same,LD50 at 168 h,[2]; ip,220 mg/kg
same,LD50 at 168 h,[2]; po,1100 mg/kg
same,"Duration of AI Activity, time in hrs to reduce 2 × CP cell ED50 to 40% inhibition of Vol.: Cells",[3],3.0 h
same,ED50,"[3]; 3 h, read-out: CPA ED50, Cells",75 ± 7.5 mg/kg
same,ED50,"[3]; 3 h, read-out: CPA ED50, Vol.",28 ± 3.2 mg/kg
same,"Duration of AI Activity, time in hrs to reduce 2 × CP cell ED50 to 40% inhibition of Vol.: Vol.",[3],35.0 h
same,"CPA ED50, Local",[3]; local,0.04 mg/rat
same,ED50,acetic acid writhing [12]; Rattus norvegicus,21 ± 3.4 mg/kg
same,LD50 at 168 h,"[4]; ip, 7 day observation",500 mg/kg
same,Activity in trypsin hyperalgesic assay,[6],essentially inactive
same,THA activity (inactive at stated dose),"[6]; rat hindlimb, p.o., inactive at 360 mg/kg",Inactive
same,Gastric damage in the rat,gastric damage [13]; single oral dose of 30 mg/kg,produces ulcers and haemorrhages
same,"AI Activity in Adrex, Cells",[8],Inactive
same,"AI Activity in Adrex, Vol.",[8],Active
same,ED50,[10],50 ± 8.1 mg/kg
COc1ccc2c3c1O[C@H]1[C@@H](O)C=C[C@H]4[C@@H](C2)N(C)CC[C@@]341 [Codeine],Activity in hot plate assay for strong analgesic activity,hot plate analgesia,active
"CC(=O)Nc1ccc2c(c1)OCO2 [Compound of formula (I), N-(1,3-benzodioxol-5-yl)acetamide]",LD50 at 168 h,[2]; ip,250 mg/kg
same,LD50 at 168 h,[2]; po,660 mg/kg
same,Peroxidase inhibition,peroxidase,"is not a prostaglandin synthetase, lipoxygenase or peroxidase inhibitor"
same,"Duration of AI Activity, time in hrs to reduce 2 × CP cell ED50 to 40% inhibition of Vol.: Cells",[3],6 h
same,ED50,[3]; [18],34 ± 2.2 mg/kg
same,ED50,"[3]; dose reducing neutrophils mobilized at 3 hrs by 50%, read-out: CPA ED50, Cells",49 ± 6.8 mg/kg
same,"Duration of AI Activity, time in hrs to reduce 2 × CP cell ED50 to 40% inhibition of Vol.: Vol.",[3],6 h
same,Anti-inflammatory activity in the rat,[3]; carrageenin pleurisy assay,comparable with aspirin
same,CPA Local activity (inactive at stated dose),[3]; local,Inactive
same,ED50,"acetic acid writhing [12]; rat, p.o.",50 ± 0.6 mg/kg
same,LD50 at 168 h,"[4]; ip, 7 day observation",410 mg/kg
same,LD50 at 168 h,"[4]; po, 7 day observation",1000 mg/kg
same,Methemoglobinemia (Cyanosis),methemoglobinemia [5],No
same,Methemoglobinaemia,"methemoglobinemia [5]; rats, high oral doses",not been shown
same,Prostaglandin synthetase inhibition,prostaglandin synthetase,"is not a prostaglandin synthetase, lipoxygenase or peroxidase inhibitor"
same,"Activity in trypsin hyperalgesic assay, I.C.V.",[6]; injected intracerebroventricularly (I.C.V.),inactive
same,ED50,"[6]; rat hindlimb, p.o.",20 ± 5.1 mg/kg
same,"Duration of Analgesia, time in hours to reduce -1.5 × THA ED50 to 40% inhibition",[6]; p.o.,8.0 h
same,Platelet aggregation inhibition,platelet aggregation,does not produce the gastric damage or platelet aggregation inhibition
same,Gastric damage in the rat,gastric damage [13]; after 80 mg/kg,does not produce gastric damage
same,"AI Activity in Adrex, Cells",[8],Active
same,"AI Activity in Adrex, Vol.",[8],Active
same,Gastric damage associated with aspirin-like drugs,gastric damage [14],does not produce the gastric damage
same,Lipoxygenase inhibition,lipoxygenase,"is not a prostaglandin synthetase, lipoxygenase or peroxidase inhibitor"
same,Binding to opiate receptors in vitro,opiate receptors,does not bind to opiate receptors in vitro
same,Histopathological evidence of hepatic or renal damage,[15]; mouse,not been shown to produce histopathological evidence of hepatic or renal damage
same,Methemoglobinemia (Cyanosis),methemoglobinemia [9]; @ 200 mg/kg p.o.,Slight
same,Methemoglobinaemia,"methemoglobinemia [9]; dogs, high dose levels",has produced methemoglobinaemia in dogs at high dose levels
same,"Histopathology, Rat Kidney","rat liver, rat kidney [16]",-
same,"Histopathology, Rat Liver","rat liver, rat kidney [16]",-
same,Histopathological evidence of hepatic or renal damage,"rat liver, rat kidney [16]; rat",not been shown to produce histopathological evidence of hepatic or renal damage
same,ED50,[10],57 mg/kg
same,Antipyretic activity in the rat,[10]; yeast-induced hyperthermia,comparable with aspirin and phenacetin
same,Activity in hot plate assay for strong analgesic activity,hot plate analgesia,inactive
same,Depletion of hepatic glutathione,hepatic glutathione; mouse,not been shown
same,Inhibition of analgesic activity by naloxone,[17],not inhibited by naloxone
CN1CC[C@]23c4c5ccc(O)c4O[C@H]2[C@@H](O)C=C[C@H]3[C@H]1C5 [Morphine],Activity in hot plate assay for strong analgesic activity,hot plate analgesia,active
"CCOc1ccc(NC(C)=O)cc1 [Phenacetin, p-ethoxyacetanilide]",ED50,acetic acid writhing [1]; Mus musculus,116 ± 14.5 mg/kg
same,LD50 at 168 h,[2]; ip,620 mg/kg
same,LD50 at 168 h,[2]; po,2500 mg/kg
same,"Duration of AI Activity, time in hrs to reduce 2 × CP cell ED50 to 40% inhibition of Vol.: Cells",[3],7.0 h
same,ED50,"[3]; 3 h, read-out: CPA ED50, Cells",110 ± 15.5 mg/kg
same,ED50,"[3]; 3 h, read-out: CPA ED50, Vol.",102 ± 14.6 mg/kg
same,"Duration of AI Activity, time in hrs to reduce 2 × CP cell ED50 to 40% inhibition of Vol.: Vol.",[3],10.5 h
same,CPA Local activity (inactive at stated dose),[3]; local,Inactive
same,ED50,acetic acid writhing [12]; Rattus norvegicus,46 ± 10.1 mg/kg
same,LD50 at 168 h,"[4]; ip, 7 day observation",900 mg/kg
same,LD50 at 168 h,"[4]; po, 7 day observation",2900 mg/kg
same,Methemoglobinemia (Cyanosis),methemoglobinemia [5],Yes
same,ED50,[6]; Rattus norvegicus,69 ± 11.6 mg/kg
same,"Duration of Analgesia, time in hours to reduce -1.5 × THA ED50 to 40% inhibition",[6]; p.o.,5.7 h
same,"AI Activity in Adrex, Cells",[8],Inactive
same,"Histopathology, Mouse Kidney","[15]; @ 40% LD50, i.p.",-
same,"Histopathology, Mouse Liver","[15]; @ 40% LD50, i.p.",-
same,Methemoglobinemia (Cyanosis),methemoglobinemia [9]; @ 100 mg/kg p.o.,Yes
same,Methemoglobinaemia,methemoglobinemia [9]; relatively low dose levels,produces severe methemoglobinaemia at relatively low dose levels
same,"Histopathology, Rat Kidney","rat liver, rat kidney [16]",-
same,"Histopathology, Rat Liver","rat liver, rat kidney [16]",-
same,ED50,[10],55 ± 28.6 mg/kg
same,Hepatic Gluathione Depletion,hepatic glutathione,+ (90% depletion over a 5 hr period)
